Tests used:
normal human plasma = experiment: Activated partial thromboplastin time (APTT) assay; type: biochemical
Procedure: For the activated partial thromboplastin time (APTT) assays, the activation time was set at 120 sec and acquisition time at 300 to 600 sec depending on the expected outcome of the assay. Citrated normal human plasma and inhibitor were incubated together. The sample (plasma and inhibitor) and activator (Instrumentation Laboratories Ellagic acid/Phospholipid mix Test Reagent) were automatically pipetted and incubated together for 2 min at 37° C., then CaCl2 was added and clotting time determined by means of optical assessment. The total incubation time of inhibitor with plasma was ca. 3 min before addition of activator, and 5 min before addition of CaCl2.

rabbit plasma = experiment: PT clotting time in rabbit plasma; type: biochemical; conditions: 40 μM, rabbit thromboplastin diluted two-fold
Procedure: Samples of rabbit plasma were assayed using an MLA 800 coagulometer and Dade reagents. Actin FS® was the activator in the APTT assay. Rabbit Thromboplastin with Ca++ was used for the PT assays; the rabbit thromboplastin was diluted two-fold. All mutant inhibitors tested prolonged clotting by at least one fold. […] A greater than 10 fold prolongation of the clotting time at 40 μM was observed.

[1] = system: New Zealand white rabbits; experiment: Rabbit deep medial injury model (carotid artery patency and thrombus weight); type: in vivo; conditions: for Clot (mgs): mean ±sem
Procedure: Male New Zealand white rabbits (~4 kg) were anesthetized to surgical anesthesia plane with an IM injection of Ketamine/Xylaxine. The rabbits were placed supine on a restraining board, warmed to 37° C., and the neck and inner thigh area shaved. Teflon catheters were replaced in a marginal ear vein and femoral artery for drug delivery and sample collection respectively. Prior to treatment, blood samples were collected for coagulation tests (APTT and PT). Bleeding time was assessed from a cut made in the cuticle portion of a hind limb nail. Incisions were made in the neck region and the entire left common carotid artery and its branches were surgically isolated. An ultrasonic flow probe (Transonics®) was placed on the common carotid approximately 5 cm caudal to the common-internal bifurcation. After blood flow reached a stable baseline, drugs (saline or test compounds) were delivered via the marginal ear vein. A deflated embolectomy catheter (Fogarty®, 3F) was then introduced into the lumen of the common via an incision in the lingual branch. Blood flow through the artery was stopped briefly while the catheter was introduced and loosely secured with 2-0 silk tie at the incision site. After the catheter was in place and secure, blood flow was restored. The deflated balloon was advanced to within 2 mm of the flow probe and inflated with saline until resistance of the vessel wall was felt. The catheter was pulled back with a steady motion to the first branch and then deflated. This procedure was repeated a total of six times for each experimental animal, after which the catheter was removed. […] Over 40 minutes, blood samples were taken for APTT and PT measurements, cuticle bleeding times were assessed and blood flow through the carotid monitored. Duration of patency was defined as the total amount of time (maximum=40 minutes) that any measurable blood flow is detected in the artery. Patency rate refers to the percentage of animals tested who had carotid artery blood flow ≥5 minutes. At the end of the experiment the rabbit was euthanized and the carotid artery removed and opened. If any thrombus was present, it was removed, blotted and the weight recorded.
[Heparin was dosed as a 25 u/kg bolus followed by a continuous infusion of 1) 0.5 u/kg/min or 2) 1 u/kg/min. Other reagents were given as a 2 mg/kg IV bolus. With the exception of the patency data, values are expressed as means ±sem.]

TF-FVIIa = TF-FVIIa (Homo sapiens, UniProt P08709); conditions: read-out: Ki, competitive inhibition of TF-FVIIa activity; cited from earlier work
TF-FVIIa, sequence (P08709 213-466 limits assumed): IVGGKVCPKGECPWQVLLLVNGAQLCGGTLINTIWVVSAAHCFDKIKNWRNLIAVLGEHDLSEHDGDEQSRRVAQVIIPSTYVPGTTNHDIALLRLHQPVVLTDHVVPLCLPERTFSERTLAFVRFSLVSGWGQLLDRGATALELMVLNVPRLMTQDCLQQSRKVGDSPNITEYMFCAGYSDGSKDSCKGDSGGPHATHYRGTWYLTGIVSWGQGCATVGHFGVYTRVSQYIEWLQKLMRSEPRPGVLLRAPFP
TF-FVIIa, sequence (P08709 61-212 limits assumed): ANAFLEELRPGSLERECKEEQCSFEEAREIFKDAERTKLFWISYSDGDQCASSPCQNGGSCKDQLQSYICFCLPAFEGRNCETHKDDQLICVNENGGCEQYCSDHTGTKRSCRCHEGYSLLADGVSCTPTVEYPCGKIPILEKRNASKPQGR
TF-FVIIa, sequence (P13726 33-295 partner): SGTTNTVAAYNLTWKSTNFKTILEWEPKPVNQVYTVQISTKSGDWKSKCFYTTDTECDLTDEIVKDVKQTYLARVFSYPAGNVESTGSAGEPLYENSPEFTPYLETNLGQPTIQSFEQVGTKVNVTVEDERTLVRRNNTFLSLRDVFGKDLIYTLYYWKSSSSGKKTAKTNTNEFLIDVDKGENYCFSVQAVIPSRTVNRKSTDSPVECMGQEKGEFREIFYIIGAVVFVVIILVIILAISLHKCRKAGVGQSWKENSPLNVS

TF-induced coagulation = conditions: cited from earlier work
[2] = 25 u/kg bolus then continuous infusion 0.5 u/kg/min
[3] = 25 u/kg bolus then continuous infusion 1 u/kg/min

Alzheimer's amyloid β-protein precursor inhibitor (VREVCSEQAETGPCRAMISRWYFDVTEGKCAPFFYGGCGGNRNNFDTEEYCMAVCGSA) [APPI]
APTT clotting time, fold prolongation (normal human plasma; 40 μM inhibitor, uninhibited clotting time 31 s): 3.6 fold | APTT clotting time, fold prolongation (normal human plasma; ca. 7 μM inhibitor): ca. 3 fold | PT, fold increase over baseline (rabbit plasma): 1.4 fold | Patency (%) ([1]; 2 mg/kg IV bolus, animals with carotid artery blood flow ≥5 minutes): 40% | Clot (mgs) ([1]; 2 mg/kg IV bolus, thrombus weight): 49.5 ± 18.2 mgs

Bovine pancreatic trypsin inhibitor [BPTI]
Ki (TF-FVIIa): 30 µM | concentration needed to prolong the clotting time 1.4-fold in a PT assay (TF-induced coagulation): ca. 75 pM

Heparin
Patency (%) [1, 2]: 67% | Clot (mgs) [1, 2]: 13.6 ± 4.7 mgs | Patency (%) [1, 3]: 100% | Clot (mgs) [1, 3]: 19.1 ± 8.5 mgs | patency and clot size compared to the saline control (in words) ([1]; doses as in Table III): significantly prolonged patency and reduced clot size
